Test results as given in ChEMBL document CHEMBL5465560, “Selectivity Literature for EUbOPEN Chemogenomic Library” (2024).

Key:
[1] = test system: T1, Receptor-type tyrosine-protein kinase FLT3 (Homo sapiens), P36888 [N841I]; conditions: at 10 µM
T1 sequence (whole entry): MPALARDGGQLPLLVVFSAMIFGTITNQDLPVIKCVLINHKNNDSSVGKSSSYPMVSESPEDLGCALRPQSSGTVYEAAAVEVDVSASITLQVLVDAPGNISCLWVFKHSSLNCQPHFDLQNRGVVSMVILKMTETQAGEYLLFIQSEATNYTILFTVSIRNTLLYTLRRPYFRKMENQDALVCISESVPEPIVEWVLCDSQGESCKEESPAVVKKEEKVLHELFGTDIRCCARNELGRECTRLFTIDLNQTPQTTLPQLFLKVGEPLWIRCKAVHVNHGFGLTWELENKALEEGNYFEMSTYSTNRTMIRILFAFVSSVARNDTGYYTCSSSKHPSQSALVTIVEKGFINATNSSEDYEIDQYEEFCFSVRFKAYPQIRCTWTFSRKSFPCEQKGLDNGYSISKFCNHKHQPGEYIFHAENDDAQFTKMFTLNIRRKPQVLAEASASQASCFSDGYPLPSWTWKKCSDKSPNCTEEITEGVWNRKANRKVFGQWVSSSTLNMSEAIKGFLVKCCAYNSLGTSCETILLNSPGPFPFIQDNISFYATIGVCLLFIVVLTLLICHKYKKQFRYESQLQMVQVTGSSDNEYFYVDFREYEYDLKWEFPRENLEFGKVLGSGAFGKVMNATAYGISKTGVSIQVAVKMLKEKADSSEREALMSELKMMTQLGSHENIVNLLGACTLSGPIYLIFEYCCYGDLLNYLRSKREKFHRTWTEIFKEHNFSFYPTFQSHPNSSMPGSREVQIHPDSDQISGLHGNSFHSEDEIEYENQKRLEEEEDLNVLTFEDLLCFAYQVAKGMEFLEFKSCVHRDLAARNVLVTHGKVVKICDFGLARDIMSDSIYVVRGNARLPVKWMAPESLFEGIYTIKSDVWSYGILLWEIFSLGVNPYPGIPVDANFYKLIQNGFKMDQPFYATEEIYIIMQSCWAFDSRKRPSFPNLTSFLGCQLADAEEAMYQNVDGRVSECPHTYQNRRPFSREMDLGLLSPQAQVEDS

[2] = target: Insulin-like growth factor 1 receptor (Homo sapiens, UniProt P08069); test: Selectivity interaction (KinomeScan (DiscoverX)) EUB0001049a IGF1R; conditions: at 1 µM
Insulin-like growth factor 1 receptor, sequence (P08069 31-736 limits assumed): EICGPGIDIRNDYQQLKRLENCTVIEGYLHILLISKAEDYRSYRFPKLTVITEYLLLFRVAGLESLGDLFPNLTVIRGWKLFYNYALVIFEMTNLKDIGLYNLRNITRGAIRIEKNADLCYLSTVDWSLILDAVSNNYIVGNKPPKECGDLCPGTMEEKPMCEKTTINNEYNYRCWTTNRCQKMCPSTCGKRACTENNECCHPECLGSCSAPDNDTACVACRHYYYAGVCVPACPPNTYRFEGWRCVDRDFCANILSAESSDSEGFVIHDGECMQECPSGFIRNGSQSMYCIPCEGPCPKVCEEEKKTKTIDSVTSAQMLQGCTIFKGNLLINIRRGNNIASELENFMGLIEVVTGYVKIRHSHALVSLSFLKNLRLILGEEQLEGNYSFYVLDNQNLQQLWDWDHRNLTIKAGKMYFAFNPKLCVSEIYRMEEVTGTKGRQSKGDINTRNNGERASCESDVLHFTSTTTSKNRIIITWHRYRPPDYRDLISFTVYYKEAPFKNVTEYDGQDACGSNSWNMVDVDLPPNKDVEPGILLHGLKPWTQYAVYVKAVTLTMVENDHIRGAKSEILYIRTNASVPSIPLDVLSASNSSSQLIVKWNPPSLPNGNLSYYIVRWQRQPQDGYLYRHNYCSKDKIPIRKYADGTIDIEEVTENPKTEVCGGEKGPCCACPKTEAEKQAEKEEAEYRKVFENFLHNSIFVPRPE
Insulin-like growth factor 1 receptor, sequence (P08069 741-1367 limits assumed): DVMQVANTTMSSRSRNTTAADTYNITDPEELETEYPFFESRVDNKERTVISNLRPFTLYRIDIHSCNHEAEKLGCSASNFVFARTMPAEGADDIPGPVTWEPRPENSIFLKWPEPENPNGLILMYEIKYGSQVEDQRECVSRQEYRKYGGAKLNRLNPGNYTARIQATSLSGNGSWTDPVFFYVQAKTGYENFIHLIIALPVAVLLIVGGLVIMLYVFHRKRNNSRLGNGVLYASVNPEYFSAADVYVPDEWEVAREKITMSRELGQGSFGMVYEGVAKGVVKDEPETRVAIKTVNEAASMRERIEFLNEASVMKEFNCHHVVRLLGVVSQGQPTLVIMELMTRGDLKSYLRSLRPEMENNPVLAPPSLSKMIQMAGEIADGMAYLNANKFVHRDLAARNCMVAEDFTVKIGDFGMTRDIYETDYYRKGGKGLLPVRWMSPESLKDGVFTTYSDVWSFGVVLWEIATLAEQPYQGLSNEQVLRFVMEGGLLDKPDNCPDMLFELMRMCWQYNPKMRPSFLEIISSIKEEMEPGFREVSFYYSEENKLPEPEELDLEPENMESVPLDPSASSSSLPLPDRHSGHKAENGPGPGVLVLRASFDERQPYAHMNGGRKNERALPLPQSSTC

[3] = target: Dual specificity mitogen-activated protein kinase kinase 1 (Homo sapiens, UniProt Q02750); test: Selectivity interaction (Kinase panel (Invitrogen)) EUB0000639a MAP2K1; conditions: at 200 nM
Dual specificity mitogen-activated protein kinase kinase 1, sequence (Q02750 whole entry): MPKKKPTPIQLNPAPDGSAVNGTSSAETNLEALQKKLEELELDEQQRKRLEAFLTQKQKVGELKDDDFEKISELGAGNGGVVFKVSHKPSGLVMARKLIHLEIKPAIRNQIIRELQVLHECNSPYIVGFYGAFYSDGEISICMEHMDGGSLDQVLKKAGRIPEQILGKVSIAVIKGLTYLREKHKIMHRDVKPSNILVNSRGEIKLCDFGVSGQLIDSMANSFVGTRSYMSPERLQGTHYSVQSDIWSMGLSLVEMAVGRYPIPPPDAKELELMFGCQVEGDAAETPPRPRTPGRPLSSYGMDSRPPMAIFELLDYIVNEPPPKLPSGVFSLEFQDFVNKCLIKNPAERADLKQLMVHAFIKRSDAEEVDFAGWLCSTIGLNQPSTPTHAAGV

[4] = target: Protein-tyrosine kinase 2-beta (Homo sapiens) (UniProt Q14289); test: Selectivity interaction (ActivX KiNativ screen (kinase selectivity in THP-1 cell lysates)) EUB0000639a PTK2B; assay type: subcellular; conditions: lysate, at 5 µM
Protein-tyrosine kinase 2-beta (Homo sapiens), sequence (Q14289 whole entry, looked up): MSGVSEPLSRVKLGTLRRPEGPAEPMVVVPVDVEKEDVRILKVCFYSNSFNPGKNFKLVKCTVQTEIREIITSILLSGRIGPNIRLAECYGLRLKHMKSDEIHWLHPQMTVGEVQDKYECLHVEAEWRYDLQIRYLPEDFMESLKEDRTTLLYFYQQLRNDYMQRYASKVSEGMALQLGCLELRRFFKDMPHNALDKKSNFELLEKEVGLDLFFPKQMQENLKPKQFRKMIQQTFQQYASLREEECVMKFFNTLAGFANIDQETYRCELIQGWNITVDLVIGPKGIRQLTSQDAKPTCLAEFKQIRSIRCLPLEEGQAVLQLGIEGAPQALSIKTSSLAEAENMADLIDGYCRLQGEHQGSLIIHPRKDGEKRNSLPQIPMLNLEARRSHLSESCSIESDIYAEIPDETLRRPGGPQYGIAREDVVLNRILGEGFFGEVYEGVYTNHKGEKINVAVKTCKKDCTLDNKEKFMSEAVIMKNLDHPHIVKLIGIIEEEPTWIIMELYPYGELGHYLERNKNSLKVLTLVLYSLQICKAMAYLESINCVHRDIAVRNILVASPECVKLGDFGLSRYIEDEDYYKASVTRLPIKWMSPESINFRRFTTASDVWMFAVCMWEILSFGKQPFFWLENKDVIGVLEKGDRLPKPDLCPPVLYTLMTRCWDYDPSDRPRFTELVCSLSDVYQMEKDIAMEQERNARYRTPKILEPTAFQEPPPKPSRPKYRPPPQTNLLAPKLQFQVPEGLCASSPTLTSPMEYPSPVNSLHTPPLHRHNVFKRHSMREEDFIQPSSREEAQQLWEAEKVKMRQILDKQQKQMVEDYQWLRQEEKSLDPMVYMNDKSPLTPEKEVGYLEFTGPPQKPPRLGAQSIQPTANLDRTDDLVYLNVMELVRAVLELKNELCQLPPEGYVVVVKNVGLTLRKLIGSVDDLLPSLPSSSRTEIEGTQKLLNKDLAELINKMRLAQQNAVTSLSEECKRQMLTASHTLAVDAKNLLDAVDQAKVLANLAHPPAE

[5] = target: T2, Myosin-IIIb (Homo sapiens) (UniProt Q8WXR4); test: Selectivity interaction (KinomeScan (DiscoverX)) EUB0000229b MYO3B; conditions: at 10 µM
T2 sequence (whole entry): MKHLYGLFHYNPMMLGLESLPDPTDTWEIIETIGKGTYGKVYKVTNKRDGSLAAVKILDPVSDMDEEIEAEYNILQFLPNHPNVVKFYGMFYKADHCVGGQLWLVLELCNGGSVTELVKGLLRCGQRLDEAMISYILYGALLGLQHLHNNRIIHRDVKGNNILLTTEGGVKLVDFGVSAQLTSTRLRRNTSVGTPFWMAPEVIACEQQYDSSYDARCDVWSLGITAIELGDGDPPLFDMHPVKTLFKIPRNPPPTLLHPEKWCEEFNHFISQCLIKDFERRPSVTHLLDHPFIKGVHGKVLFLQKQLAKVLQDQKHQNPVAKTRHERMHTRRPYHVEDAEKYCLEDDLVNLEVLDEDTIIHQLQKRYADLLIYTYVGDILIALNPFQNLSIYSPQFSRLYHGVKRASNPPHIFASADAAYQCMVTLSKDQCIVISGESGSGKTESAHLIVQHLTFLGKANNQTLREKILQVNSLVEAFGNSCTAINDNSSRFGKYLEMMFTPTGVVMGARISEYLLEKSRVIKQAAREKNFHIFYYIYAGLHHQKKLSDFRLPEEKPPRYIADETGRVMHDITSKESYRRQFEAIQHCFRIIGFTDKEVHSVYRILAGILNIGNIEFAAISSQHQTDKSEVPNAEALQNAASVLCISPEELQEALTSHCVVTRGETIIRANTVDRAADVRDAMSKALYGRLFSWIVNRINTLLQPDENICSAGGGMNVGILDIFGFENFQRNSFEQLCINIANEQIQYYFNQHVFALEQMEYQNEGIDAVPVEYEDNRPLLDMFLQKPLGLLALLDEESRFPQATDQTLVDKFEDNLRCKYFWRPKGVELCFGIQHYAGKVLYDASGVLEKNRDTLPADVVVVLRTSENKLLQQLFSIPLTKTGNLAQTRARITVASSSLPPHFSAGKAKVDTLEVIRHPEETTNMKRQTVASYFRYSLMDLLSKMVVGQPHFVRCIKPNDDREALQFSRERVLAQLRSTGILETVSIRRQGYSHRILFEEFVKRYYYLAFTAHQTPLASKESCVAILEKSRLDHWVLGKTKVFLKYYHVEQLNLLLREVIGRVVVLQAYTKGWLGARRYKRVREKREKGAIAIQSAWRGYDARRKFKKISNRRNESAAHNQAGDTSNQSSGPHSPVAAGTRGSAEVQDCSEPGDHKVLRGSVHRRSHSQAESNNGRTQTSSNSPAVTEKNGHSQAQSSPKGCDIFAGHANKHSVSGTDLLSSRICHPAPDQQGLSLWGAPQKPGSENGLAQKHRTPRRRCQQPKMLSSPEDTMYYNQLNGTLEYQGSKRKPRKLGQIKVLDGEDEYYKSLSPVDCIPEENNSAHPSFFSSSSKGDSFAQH

[6] = target: Serine/threonine-protein kinase MRCK beta (Homo sapiens) (UniProt Q9Y5S2); test: Selectivity interaction (KinomeScan (DiscoverX)) EUB0000092b CDC42BPB; conditions: at 10 µM
Serine/threonine-protein kinase MRCK beta (Homo sapiens), sequence (Q9Y5S2 whole entry): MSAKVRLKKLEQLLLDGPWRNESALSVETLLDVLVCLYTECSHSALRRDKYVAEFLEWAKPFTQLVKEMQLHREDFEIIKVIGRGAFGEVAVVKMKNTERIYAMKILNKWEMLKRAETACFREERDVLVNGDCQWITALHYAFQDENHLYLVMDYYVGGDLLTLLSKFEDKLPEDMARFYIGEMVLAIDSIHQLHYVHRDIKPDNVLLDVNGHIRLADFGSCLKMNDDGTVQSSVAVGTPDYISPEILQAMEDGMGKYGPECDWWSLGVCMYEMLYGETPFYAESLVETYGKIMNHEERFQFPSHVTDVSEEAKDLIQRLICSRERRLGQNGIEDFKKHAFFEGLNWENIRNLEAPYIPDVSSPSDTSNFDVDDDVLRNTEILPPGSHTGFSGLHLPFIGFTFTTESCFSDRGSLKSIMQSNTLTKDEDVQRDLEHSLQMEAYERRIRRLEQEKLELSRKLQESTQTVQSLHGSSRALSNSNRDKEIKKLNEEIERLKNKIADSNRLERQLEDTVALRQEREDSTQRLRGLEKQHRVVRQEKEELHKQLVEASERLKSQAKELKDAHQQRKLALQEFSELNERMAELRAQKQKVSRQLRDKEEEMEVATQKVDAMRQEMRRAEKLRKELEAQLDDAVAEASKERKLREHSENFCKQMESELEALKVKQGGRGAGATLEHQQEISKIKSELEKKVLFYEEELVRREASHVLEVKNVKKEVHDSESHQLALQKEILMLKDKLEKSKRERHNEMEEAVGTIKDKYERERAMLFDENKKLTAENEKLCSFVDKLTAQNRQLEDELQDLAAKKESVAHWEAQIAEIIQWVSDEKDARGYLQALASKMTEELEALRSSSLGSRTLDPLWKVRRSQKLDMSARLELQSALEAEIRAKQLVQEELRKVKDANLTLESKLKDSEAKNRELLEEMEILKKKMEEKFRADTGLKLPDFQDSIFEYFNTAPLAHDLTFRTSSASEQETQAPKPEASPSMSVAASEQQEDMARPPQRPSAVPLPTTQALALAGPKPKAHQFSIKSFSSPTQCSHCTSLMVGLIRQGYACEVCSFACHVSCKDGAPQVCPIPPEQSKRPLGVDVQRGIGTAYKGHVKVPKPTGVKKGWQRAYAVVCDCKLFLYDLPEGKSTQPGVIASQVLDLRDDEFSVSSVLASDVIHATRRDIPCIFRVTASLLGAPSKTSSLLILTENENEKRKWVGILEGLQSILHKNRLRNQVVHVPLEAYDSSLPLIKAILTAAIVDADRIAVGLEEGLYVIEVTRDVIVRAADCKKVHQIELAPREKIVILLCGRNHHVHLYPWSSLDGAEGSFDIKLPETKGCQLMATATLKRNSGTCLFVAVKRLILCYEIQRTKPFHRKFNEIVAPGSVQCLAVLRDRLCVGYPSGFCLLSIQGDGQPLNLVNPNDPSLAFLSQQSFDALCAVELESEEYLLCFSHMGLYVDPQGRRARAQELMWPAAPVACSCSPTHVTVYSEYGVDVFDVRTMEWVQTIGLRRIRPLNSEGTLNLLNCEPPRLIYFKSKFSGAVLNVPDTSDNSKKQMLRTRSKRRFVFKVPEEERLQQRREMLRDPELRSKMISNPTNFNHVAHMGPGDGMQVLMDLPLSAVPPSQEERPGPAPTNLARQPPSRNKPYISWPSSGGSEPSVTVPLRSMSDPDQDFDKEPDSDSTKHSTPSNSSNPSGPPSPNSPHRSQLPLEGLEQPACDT

[7] = target: Tyrosine-protein kinase BTK (Homo sapiens, UniProt Q06187); test: Selectivity interaction (KinomeScan (DiscoverX)) EUB0000655a BTK; conditions: at 10 µM
Tyrosine-protein kinase BTK, sequence (Q06187 whole entry): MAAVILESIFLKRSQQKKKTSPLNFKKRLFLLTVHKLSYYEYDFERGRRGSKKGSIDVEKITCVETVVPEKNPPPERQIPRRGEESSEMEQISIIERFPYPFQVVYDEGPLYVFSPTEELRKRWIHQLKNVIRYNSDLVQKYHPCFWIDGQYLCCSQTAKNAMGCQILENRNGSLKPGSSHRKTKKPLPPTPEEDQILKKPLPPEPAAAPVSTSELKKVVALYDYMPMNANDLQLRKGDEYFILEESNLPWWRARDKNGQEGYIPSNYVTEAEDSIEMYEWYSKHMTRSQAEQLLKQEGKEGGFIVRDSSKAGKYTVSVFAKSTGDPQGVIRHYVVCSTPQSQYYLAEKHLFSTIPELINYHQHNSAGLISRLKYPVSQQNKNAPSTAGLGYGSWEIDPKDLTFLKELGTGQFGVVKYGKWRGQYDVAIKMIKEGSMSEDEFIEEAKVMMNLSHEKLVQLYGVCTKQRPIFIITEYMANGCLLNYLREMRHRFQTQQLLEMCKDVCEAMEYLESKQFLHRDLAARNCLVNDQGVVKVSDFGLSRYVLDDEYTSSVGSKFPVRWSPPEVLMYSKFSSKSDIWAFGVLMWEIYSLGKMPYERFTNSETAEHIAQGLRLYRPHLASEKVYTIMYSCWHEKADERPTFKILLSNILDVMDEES

[8] = target: Mitogen-activated protein kinase kinase kinase kinase 5 (Homo sapiens) (UniProt Q9Y4K4); test: Selectivity interaction (Kinase panel (KiNativ target engagement assay in Jurkat cells)) EUB0001635a MAP4K5; assay type: cell-based; conditions: Selectivity number of off-targets 0.0, Selectivity number of targets 233.0, Source Knowledge https://www.sciencedirect.com/science/article/pii/S2451945619300674?via%3Dihub, at 1 µM
[9] = target: Phosphatidylinositol 3-kinase catalytic subunit type 3 (Homo sapiens, UniProt Q8NEB9); test: Selectivity interaction (Kinase panel (KiNativ target engagement assay in Jurkat cells)) EUB0001635a PIK3C3; assay type: cell-based; conditions: Selectivity number of off-targets 0.0, Selectivity number of targets 233.0, Source Knowledge https://www.sciencedirect.com/science/article/pii/S2451945619300674?via%3Dihub, at 1 µM
[10] = target: Tyrosine-protein kinase receptor Tie-1 (Homo sapiens) (UniProt P35590); test: Selectivity interaction (KinomeScan (DiscoverX)) EUB0000666a TIE1; conditions: at 10 µM

Cc1cc([C@@H](C)Nc2ccccc2C(=O)O)c2nc(N3CCOCC3)cc(=O)n2c1 [AZD-6482]
% of control [1]: 44%

COc1cc(Nc2nc(C)cc(-c3cnn4nc(OC)ccc34)n2)cc(C(F)(F)F)c1
% of control [2]: 91%

CC[C@@H]1[C@H](F)C(=O)N[C@@H]1COc1nccc2cc(C(N)=O)c(OC)cc12 [ZIMLOVISERTIB]
% of inhibition [3]: 9.31% | % of inhibition [4]: 11.6%

COc1cc(N(C)c2ccnc3ccc(C(F)(F)F)cc23)cc(OC)c1OC
% binding [5]: 100%

CCC(=O)N1CCN(c2ccc(-n3c(=O)ccc4cnc5ccc(-c6cnc7ccccc7c6)cc5c43)cc2C(F)(F)F)CC1
% of control [6]: 3.4%

CN(C)CCOc1ccc(-c2nc(-c3ccncc3)c(-c3ccc4c(c3)CC/C4=N\O)[nH]2)cc1
% of control [7]: 92%

C=CC(=O)Nc1ccc(C(=O)Nc2[nH]nc3c2CN(C(=O)N[C@H](CN(C)C)c2ccccc2)C3(C)C)cc1
% of engagement [8]: 6% | % of engagement [9]: -5.1%

O=C(NOC[C@H](O)CO)c1ccc(F)c(F)c1Nc1ccc(I)cc1F
% of control [10]: 54%
